Experimental data as given in patent US12187702B2, “Sulfonamideurea compounds” (Inflazome Limited, priority 2018, dated 2025).
Counter-ions that a name gives are not always drawn.

Experiments:
[1] = PK, intravenous administration; format: in vivo, male Sprague Dawley rats; details: male, Sprague Dawley, plasma, rat; for clearance / half-life: dose per compound as in Table 3; for AUC: dose per compound as in Table 3 (0.08-1.86 mg/kg); for Vd: dose per compound as in Table 3, read-out: Vdss
Procedure: (§1) Pharmacokinetic parameters were determined in male Sprague Dawley rats (Charles River, UK, 250-350 g; or Vital River Laboratory Animal Technology Co Ltd, Beijing, China, 7-9 weeks old). Animals were individually housed during the study and maintained under a 12 h light/dark cycle.
(§2) For intravenous administration, compounds were formulated as a solution in water or DMSO:PBS [10:90] in 2 mL/kg dosing volume and administered via tail or jugular vein. For oral administration, compounds were formulated as a solution in 0.5% w/v methyl cellulose in water in 5 mL/kg dosing volume and administered orally.
(§3) Serial blood samples (about 120-300 μL) were taken from each animal at each of 8 time-points post dose (0.083, 0.25, 0.5, 1, 2, 4, 8 and 24 h) or at each of 12 time-points post dose (0.03, 0.1, 0.17, 0.25, 0.5, 1, 2, 4, 6, 8, 12 and 24 h) or pre-dose and at each of 9 time-points post dose (0.25, 0.5, 1, 2, 4, 6, 8, 12 and 24 h). Samples were held on ice for no longer than 30 minutes before centrifugation (10,000 rpm (8,385 g) for 3 minutes; or 5,696 rpm (3,000 g) for 15 minutes) for plasma generation. Plasma was frozen on dry ice prior to bioanalysis. PK parameters were generated from LC-MS/MS data using Dotmatics or Phoenix WinNonlin 6.3 software.

NLRP3 [2] = target: T1, NLRP3 (Homo sapiens, UniProt Q96P20); experiment: Human whole blood IL-1β release assay (LPS + nigericin, AlphaLisa); format: cell-based; design: Plate out 80 μl of whole blood containing 1 μg/ml of LPS; from tissue; host or cells: human whole blood from healthy donors
How it was run: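 Healthy-donor Li-heparin whole blood containing 1 μg/ml LPS incubated with compound (8-point half-log dilution, 10 μM top) for 3 h at 37 °C, then with 10 μM nigericin for 1 h. Supernatant IL-1β measured by AlphaLisa; IC50 from 4-parameter variable-slope fit.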

NLRP3 [3] = target: T1, NLRP3; experiment: THP-1 cells pyroptosis assay (LPS + nigericin, resazurin read-out); format: cell-based; design: Seed THP-1 cells (25,000 cells/well) containing 1.0 μg/ml LPS; host or cells: THP-1 cells
How it was run: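 THP-1 cells (25,000/well) primed with 1 μg/ml LPS in serum-free RPMI, treated 3 h with compound (8-point half-log series, 10 μM top, 0.1% DMSO), then 5 μM nigericin for 1 h at 37 °C. Viability read by 100 μM resazurin fluorescence after 1-2 h; IC50 from 4-parameter fit.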

PK, oral administration = format: in vivo, male Sprague Dawley rats; details: male, Sprague Dawley, plasma, rat, 3 mg/kg
Procedure: as §1, §2, §3

[4] = human whole blood, 1 μg/ml LPS, 10 μM nigericin, IL-1β release, read-out: HWB IC50
[5] = THP-1 cells, 1 μg/ml LPS, 5 μM nigericin, NLRP3 inhibitory activity, read-out: THP IC50

T1 sequence (Q96P20 whole entry): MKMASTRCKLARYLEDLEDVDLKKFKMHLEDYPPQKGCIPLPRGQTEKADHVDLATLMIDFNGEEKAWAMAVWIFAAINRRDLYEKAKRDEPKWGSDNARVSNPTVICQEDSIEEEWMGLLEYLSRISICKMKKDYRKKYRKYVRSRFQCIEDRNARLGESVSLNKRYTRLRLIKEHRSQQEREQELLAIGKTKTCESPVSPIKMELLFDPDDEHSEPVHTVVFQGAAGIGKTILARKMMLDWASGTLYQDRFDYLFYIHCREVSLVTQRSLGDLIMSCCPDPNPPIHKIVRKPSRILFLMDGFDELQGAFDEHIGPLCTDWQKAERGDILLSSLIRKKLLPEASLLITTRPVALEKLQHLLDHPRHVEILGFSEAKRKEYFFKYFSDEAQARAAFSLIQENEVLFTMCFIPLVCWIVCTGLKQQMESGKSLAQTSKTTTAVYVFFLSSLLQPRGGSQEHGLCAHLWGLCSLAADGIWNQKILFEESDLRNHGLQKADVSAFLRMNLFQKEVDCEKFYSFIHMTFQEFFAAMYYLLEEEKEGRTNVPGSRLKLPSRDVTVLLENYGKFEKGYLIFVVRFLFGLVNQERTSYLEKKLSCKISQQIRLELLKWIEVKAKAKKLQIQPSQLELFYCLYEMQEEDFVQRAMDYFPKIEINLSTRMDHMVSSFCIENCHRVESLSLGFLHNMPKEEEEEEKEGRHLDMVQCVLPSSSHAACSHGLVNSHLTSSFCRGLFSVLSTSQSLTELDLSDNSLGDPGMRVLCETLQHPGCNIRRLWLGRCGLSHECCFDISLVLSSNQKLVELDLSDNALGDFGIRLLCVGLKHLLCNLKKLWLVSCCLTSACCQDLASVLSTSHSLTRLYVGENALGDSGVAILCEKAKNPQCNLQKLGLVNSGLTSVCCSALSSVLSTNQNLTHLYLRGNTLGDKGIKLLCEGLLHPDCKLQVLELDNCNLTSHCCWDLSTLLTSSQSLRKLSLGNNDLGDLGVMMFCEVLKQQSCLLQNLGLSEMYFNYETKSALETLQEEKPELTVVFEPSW

| clearance [1] [L/h/kg] | half-life [1] [h] | AUC [1] [µg·h/mL] | Vd [1] [L/kg] | IC50 (NLRP3 [2]; [4]) [µM] | IC50 (NLRP3 [3]; [5]) [µM] | SMILES | other results |
| --- | --- | --- | --- | --- | --- | --- | --- |
| 0.138 | 2.7 | 7.27 | 0.35 | < 0.5 | < 0.5 | CN(C)CCN(C)S(=O)(=O)NC(=O)Nc1c2c(cc3c1CCC3)CCC2 [Example 6, potassium salt] | – |
| 0.438 | 4 | 2.29 | 0.61 | < 0.5 | < 1 | CN(C)CCNS(=O)(=O)NC(=O)Nc1c2c(cc3c1CCC3)CCC2 [Example 8, 3-(N-(2-(Dimethylamino)ethyl)sulfamoyl)-1-(1,2,3,5,6,7-hexahydro-s-indacen-4-yl)urea] | – |
| 0.174 | 2.7 | 5.66 | 0.59 | < 0.5 | < 0.5 | CN1CCC(N(C)S(=O)(=O)NC(=O)Nc2c3c(cc4c2CCC4)CCC3)C1 (centres unmarked) [Example 11, 3-(N-Methyl-N-(1-methylpyrrolidin-3-yl)sulfamoyl)-1-(1,2,3,5,6,7-hexahydro-s-indacen-4-yl)urea, potassium salt] | – |
| 0.426 | 1.2 | 2.35 | 0.4 | < 0.5 | < 0.5 | CN1CCCCC1CNS(=O)(=O)NC(=O)Nc1c2c(cc3c1CCC3)CCC2 (centres unmarked) [Example 20, 3-(N-((1-Methylpiperidin-2-yl)methyl)sulfamoyl)-1-(1,2,3,5,6,7-hexahydro-s-indacen-4-yl)urea, potassium salt] | – |
| 0.168 | 1.1 | 5.91 | 0.23 | < 1 | < 0.5 | CC(C)N1CCC(N(C)S(=O)(=O)NC(=O)Nc2c3c(cc4c2CCC4)CCC3)C1 (centres unmarked) [Example 36, 3-(N-(1-isopropylpyrrolidin-3-yl)-N-methylsulfamoyl)-1-(1,2,3,5,6,7-hexahydro-s-indacen-4-yl)urea, potassium salt] | – |
| 0.222 | 3.44 | 6.76 | 0.43 | < 0.5 | < 0.5 | CN1CC[C@@H](N(C)S(=O)(=O)NC(=O)Nc2c3c(cc4c2CCC4)CCC3)C1 [Example 66, 3-((R)—N-Methyl-N-(1-methylpyrrolidin-3-yl)sulfamoyl)-1-(1,2,3,5,6,7-hexahydro-s-indacen-4-yl)urea, potassium salt] | – |
| – | – | – | – | < 0.5 | < 0.5 | CN1CCC[C@@H]1CN(C)S(=O)(=O)NC(=O)Nc1c2c(cc3c1CCC3)CCC2 [Example 95, 3-((R)—N-Methyl-N-((1-methylpyrrolidin-2-yl)methyl)sulfamoyl)-1-(1,2,3,5,6,7-hexahydro-s-indacen-4-yl)urea, potassium salt] | – |
| 0.342 | 1.14 | 5.15 | 0.45 | < 0.5 | < 0.5 | CN1CCC2CN(S(=O)(=O)NC(=O)Nc3c4c(cc5c3CCC5)CCC4)CC21 (centres unmarked) [Example 96, N-((1,2,3,5,6,7-Hexahydro-s-indacen-4-yl)carbamoyl)-1-methylhexahydropyrrolo[3,4-b]pyrrole-5(1H)-sulfonamide, potassium salt] | – |
| – | – | – | – | < 0.5 | < 0.5 | CN1CCCC2CN(S(=O)(=O)NC(=O)Nc3c4c(cc5c3CCC5)CCC4)CC21 (centres unmarked) [Example 97, N-((1,2,3,5,6,7-Hexahydro-s-indacen-4-yl)carbamoyl)-1-methyloctahydro-6H-pyrrolo[3,4-b]pyridine-6-sulfonamide] | – |
| – | – | – | – | < 5 | < 5 | CN1CCC2CCN(S(=O)(=O)NC(=O)Nc3c4c(cc5c3CCC5)CCC4)CC21 (centres unmarked) [Example 98, N-((1,2,3,5,6,7-Hexahydro-s-indacen-4-yl)carbamoyl)-1-methyloctahydro-6H-pyrrolo[2,3-c]pyridine-6-sulfonamide] | – |
| 0.36 | 5.61 | 5.15 | 0.84 | – | – | COc1cc(-c2ccc3c(c2NC(=O)NS(=O)(=O)N2CC4CCN(C)C4C2)CCC3)ccn1 (centres unmarked) [Example 106] | – |
| – | – | – | – | < 0.5 | < 0.5 | CC(C)c1cc(F)cc(-c2ccncc2)c1NC(=O)NS(=O)(=O)N(C)C1CCN(C)C1 (centres unmarked) [Example 108] | – |
| 1.2 | 3.9 | 0.835 | 1.6 | < 0.5 | < 0.5 | COc1cc(-c2ccc3c(c2NC(=O)NS(=O)(=O)N(C)[C@@H]2CCN(C)C2)CCC3)ccn1 [Example 110, (R)-3-(N-Methyl-N-(1-methylpyrrolidin-3-yl)sulfamoyl)-1-(5-(2-methoxypyridin-4-yl)-2,3-dihydro-1H-inden-4-yl)urea, potassium salt] | AUC (PK, oral administration): 1.02 µg·h/mL; CL/F (PK, oral administration): 3 L/h/kg; Cmax (PK, oral administration): 0.277 µg/mL; Tmax (PK, oral administration): 0.67 h; bioavailability (PK, oral administration): 41%; half-life (PK, oral administration): 3.4 h |
| 1.02 | 4.8 | 0.979 | 1.3 | < 0.5 | < 0.5 | COc1cc(-c2ccc3c(c2NC(=O)NS(=O)(=O)N(C)[C@H]2CCN(C)C2)CCC3)ccn1 [Example 111, (S)-3-(N-methyl-N-(1-methylpyrrolidin-3-yl)sulfamoyl)-1-(5-(2-methoxypyridin-4-yl)-2,3-dihydro-1H-inden-4-yl)urea, potassium salt] | AUC (PK, oral administration): 1.38 µg·h/mL; CL/F (PK, oral administration): 2.28 L/h/kg; Cmax (PK, oral administration): 0.318 µg/mL; Tmax (PK, oral administration): 0.67 h; bioavailability (PK, oral administration): 47%; half-life (PK, oral administration): 4 h |
| – | – | – | – | < 5 | < 1 | CN1CCC[C@@H]1CN(C)S(=O)(=O)NC(=O)Nc1c2c(cc3c1CCC3)C=CC2 [Example 112, (R)—(N-Methyl-N-((1-methylpyrrolidin-2-yl)methyl)sulfamoyl)((1,2,3,5-tetrahydro-s-indacen-4-yl)carbamoyl)amide, potassium salt] | – |
| – | – | – | – | – | – | Cc1cc2c(c(NC(=O)NS(=O)(=O)N(C)C)c1-c1ccnc(OC3CCN(C)CC3)c1)CCC2 [Example 113, N-((6-Methyl-5-(2-((1-methylpiperidin-4-yl)oxy)pyridin-4-yl)-2,3-dihydro-1H-inden-4-yl)carbamoyl)N,N-dimethylsulfamide] | IC50 (NLRP3 [2]): < 0.5 µM; IC50 (NLRP3 [3]): < 0.5 µM |
| – | – | – | – | < 1 | < 0.5 | COc1cc(-c2c(C)cc3c(c2NC(=O)NS(=O)(=O)N(C)C)CCC3)ccn1 [Example 114, N-((5-(2-Methoxypyridin-4-yl)-6-methyl-2,3-dihydro-1H-inden-4-yl)carbamoyl)(N,N-dimethylsulfamoyl)amide] | – |
| – | – | – | – | < 1 | < 0.5 | CN1CCC[C@H]1CN(C)S(=O)(=O)NC(=O)Nc1c2c(cc3c1CCC3)CCC2 [Example 115, 3-((S)—N-Methyl-N-((-1-methylpyrrolidin-2-yl)methyl)sulfamoyl)-1-(1,2,3,5,6,7-hexahydro-s-indacen-4-yl)urea, sodium salt] | – |
